This note sets out measurements from patent US11878975B2, “Substituted indole compounds useful as TLR inhibitors” (BRISTOL-MYERS SQUIBB COMPANY, priority 2017, dated 2024).

Holding throughout (format): cell-based
The target of one assay is T1, human TLR9 (Homo sapiens, UniProt Q9NR96).
T1 construct: host or cells: HEK-Blue cells
T1 sequence (Q9NR96 26-1032): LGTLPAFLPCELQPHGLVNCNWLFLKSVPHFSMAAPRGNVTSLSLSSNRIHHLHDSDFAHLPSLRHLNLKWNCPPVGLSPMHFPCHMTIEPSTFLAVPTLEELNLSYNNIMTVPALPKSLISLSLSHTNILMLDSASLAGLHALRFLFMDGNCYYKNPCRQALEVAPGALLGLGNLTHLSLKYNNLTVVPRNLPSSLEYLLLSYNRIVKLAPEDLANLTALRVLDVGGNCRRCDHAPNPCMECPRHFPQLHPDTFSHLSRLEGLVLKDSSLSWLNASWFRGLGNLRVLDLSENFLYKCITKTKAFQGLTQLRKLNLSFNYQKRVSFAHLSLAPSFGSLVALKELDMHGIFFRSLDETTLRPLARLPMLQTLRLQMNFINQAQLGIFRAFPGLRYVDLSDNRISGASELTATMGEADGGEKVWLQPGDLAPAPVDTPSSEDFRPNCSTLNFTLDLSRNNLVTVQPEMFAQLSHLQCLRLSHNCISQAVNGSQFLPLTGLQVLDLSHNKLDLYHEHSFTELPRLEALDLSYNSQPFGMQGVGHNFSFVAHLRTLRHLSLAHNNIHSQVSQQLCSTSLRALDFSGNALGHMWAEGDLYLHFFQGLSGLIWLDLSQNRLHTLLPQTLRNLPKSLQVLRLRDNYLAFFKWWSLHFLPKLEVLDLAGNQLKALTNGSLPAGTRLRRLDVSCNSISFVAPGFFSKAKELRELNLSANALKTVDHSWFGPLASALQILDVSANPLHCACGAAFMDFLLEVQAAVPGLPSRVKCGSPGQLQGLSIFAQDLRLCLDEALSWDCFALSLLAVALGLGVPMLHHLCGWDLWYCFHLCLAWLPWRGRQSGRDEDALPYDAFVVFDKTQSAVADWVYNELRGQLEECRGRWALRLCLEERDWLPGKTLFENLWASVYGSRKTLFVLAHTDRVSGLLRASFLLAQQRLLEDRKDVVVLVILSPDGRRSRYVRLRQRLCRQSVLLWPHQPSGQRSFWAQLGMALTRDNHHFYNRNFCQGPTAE
In words: TLR9 inhibition reporter assay (HEK-Blue cells, SEAP reporter, ODN2006 stimulation). As to conditions: HEK-Blue cells overexpressing human TLR9, SEAP reporter, ODN2006 5 nM. The method in brief:
(§1)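 Dose range 0.05 nM–50 μM; 30 min preincubation, RT. Agonists: TLR7 gardiquimod 7.5 μM, TLR8 R848 15.9 μM, TLR9 ODN2006 5 nM. 22 h, 37 °C, 5% CO2. SEAP (IFN-β minimal promoter with NF-κB/AP-1 sites) via colorimetric detection medium; % inhibition vs agonist+DMSO and reference-inhibitor wells.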
A general note: In a reporter assay the amount or activity of a reporter protein is the signal.

For the next assay, the target named is T2, human TLR8 (Homo sapiens, UniProt Q9NR97).
T2 construct: host or cells: HEK-Blue cells
T2 sequence (Q9NR97 27-1041): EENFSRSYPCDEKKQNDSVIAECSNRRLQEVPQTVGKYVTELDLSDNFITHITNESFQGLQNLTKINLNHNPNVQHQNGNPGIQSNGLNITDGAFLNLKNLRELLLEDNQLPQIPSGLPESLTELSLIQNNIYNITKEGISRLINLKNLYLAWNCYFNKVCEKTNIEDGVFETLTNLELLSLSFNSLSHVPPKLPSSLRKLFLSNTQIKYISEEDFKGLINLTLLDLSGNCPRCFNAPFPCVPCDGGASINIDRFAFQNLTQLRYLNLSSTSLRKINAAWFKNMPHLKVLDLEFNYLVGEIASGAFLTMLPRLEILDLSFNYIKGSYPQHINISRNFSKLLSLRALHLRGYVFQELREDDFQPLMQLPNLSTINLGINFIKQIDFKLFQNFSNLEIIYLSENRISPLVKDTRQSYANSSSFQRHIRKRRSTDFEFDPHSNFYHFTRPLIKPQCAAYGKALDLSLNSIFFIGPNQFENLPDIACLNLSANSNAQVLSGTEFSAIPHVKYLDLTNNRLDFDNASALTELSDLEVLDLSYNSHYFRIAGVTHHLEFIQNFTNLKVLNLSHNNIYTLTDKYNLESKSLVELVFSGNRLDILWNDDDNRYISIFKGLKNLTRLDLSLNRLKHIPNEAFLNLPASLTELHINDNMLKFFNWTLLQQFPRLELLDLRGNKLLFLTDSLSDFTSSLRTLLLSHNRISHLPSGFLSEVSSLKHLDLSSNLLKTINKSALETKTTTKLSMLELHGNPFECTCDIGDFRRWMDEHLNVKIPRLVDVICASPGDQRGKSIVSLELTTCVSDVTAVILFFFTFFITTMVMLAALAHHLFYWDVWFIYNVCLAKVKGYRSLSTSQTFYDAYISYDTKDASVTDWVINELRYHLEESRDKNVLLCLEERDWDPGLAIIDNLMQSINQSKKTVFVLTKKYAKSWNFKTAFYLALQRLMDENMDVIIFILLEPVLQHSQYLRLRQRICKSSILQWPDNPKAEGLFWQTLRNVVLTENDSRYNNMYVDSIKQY
In words: TLR8 inhibition reporter assay (HEK-Blue cells, SEAP reporter, R848 stimulation). As to conditions: HEK-Blue cells overexpressing human TLR8, SEAP reporter, R848 15.9 μM. The gist of the method: as §1

The next assay concerns the target T3, human TLR7 (Homo sapiens, UniProt Q9NYK1).
T3 construct: host or cells: HEK-Blue cells
T3 sequence (Q9NYK1 27-1049): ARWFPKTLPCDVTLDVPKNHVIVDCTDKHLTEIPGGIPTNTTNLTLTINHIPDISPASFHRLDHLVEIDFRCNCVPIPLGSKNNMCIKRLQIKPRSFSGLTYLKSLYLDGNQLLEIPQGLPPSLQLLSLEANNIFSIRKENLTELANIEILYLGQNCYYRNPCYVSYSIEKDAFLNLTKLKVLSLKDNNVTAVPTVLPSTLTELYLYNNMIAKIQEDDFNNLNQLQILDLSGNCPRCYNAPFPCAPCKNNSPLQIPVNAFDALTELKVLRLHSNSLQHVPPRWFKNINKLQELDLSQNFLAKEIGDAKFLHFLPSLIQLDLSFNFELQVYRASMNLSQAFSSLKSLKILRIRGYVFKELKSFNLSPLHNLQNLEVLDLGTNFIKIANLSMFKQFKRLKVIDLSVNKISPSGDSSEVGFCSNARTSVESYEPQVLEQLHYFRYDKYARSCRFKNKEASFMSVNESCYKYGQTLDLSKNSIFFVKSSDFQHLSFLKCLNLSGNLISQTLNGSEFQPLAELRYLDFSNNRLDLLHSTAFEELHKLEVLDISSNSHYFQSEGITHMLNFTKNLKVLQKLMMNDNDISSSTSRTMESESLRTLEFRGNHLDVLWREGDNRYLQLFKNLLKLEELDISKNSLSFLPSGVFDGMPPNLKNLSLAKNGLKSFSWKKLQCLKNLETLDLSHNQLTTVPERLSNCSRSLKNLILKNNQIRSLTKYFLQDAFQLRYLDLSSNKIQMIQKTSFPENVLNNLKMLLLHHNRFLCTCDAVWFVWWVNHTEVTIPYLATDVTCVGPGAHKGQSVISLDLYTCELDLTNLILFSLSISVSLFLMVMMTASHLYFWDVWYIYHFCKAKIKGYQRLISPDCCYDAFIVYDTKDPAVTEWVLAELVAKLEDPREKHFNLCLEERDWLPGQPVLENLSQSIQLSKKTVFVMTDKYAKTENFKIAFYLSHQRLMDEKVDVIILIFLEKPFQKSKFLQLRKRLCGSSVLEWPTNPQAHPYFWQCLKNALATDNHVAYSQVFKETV
In words: TLR7 inhibition reporter assay (HEK-Blue cells, SEAP reporter, gardiquimod stimulation). As to conditions: HEK-Blue cells overexpressing human TLR7, SEAP reporter, gardiquimod 7.5 μM. The method in brief:
as §1

The structures appear in SMILES notation.

In the case of `COc1cc(-c2[nH]c3ccc(C4CCC(NC5(C)CC5)CC4)cc3c2C(C)C)cn2ncnc12` (stereo not drawn) [Example 43], the 50% inhibitory concentration (IC50) (commonly the point on the concentration scale where inhibition reaches its midpoint) against human TLR9 stood at 4370 nM; at human TLR8, 13 nM; against human TLR7 it was 1 nM.
For `Cc1cc(-c2[nH]c3ccc(CCN4CCOCC4)cc3c2C(C)C)cn(C)c1=O` [Example 403], in that order: 23000 nM, 7.5 nM and 36 nM.
Regarding `COc1cc(-c2[nH]c3ccc(C4CCCN(C5COC5)C4)cc3c2C(C)C)cn2ncnc12` (stereo not drawn) [Example 242], the figures for the IC50 against human TLR9, against human TLR8 and on human TLR7 were 25400 nM, 2.4 nM and 8 nM, respectively.
For `Cc1cc(-c2[nH]c3ccc(CCN4CC[C@H](F)C4)cc3c2C(C)C)cn(C)c1=O` [Example 408], in that order: 13000 nM, 2.3 nM and 15 nM.
The corresponding values for `COc1cc(-c2[nH]c3ccc(C4CN(C)CCO4)cc3c2C(C)C)cn2ncnc12` (stereo not drawn) [Example 301] are 6140 nM, 0.56 nM and 7 nM.
For `Cc1c(-c2[nH]c3ccc(C4CN(C5COC5)C4)cc3c2C(C)C)cn(C)c(=O)c1C` [Example 485], in that order: 48000 nM, 27 nM and 46 nM.
As to `COCC(=O)N1CCCC(c2ccc3[nH]c(-c4cc(C)nc(C)c4)c(C(C)C)c3c2)C1` (stereo not drawn) [Example 205], the half-maximal inhibitory concentration (IC50) against human TLR9 was > 50000 nM; against human TLR8 it was 402 nM; on human TLR7, 120 nM.
For `Cc1c(-c2[nH]c3ccc(C4CCC(NC5COC5)CC4)cc3c2C(C)C)cn2ncnc2c1C` (single isomer, unassigned) [Example 86], in that order: 5220 nM, 2.6 nM and 2 nM.
As to `Cc1c(-c2[nH]c3ccc(C4CC5CN(CC(=O)N(C)C)CC5C4)cc3c2C(C)C)cn2ncnc2c1C` (stereo not drawn) [Example 507], the IC50 against human TLR9 is 8180 nM; against human TLR8, 14 nM; against human TLR7, 3 nM.
Turning to `CCc1c(-c2ccnc(C)c2)[nH]c2ccc(CNC(=O)OCC3CCNCC3)cc12` [Example 449], the values for the IC50 on human TLR9, against human TLR8 and against human TLR7 were 480 nM, 228 nM and 1600 nM, respectively.
For `COc1cc(-c2[nH]c3ccc(C4CCC(N5CCNC(=O)C5)CC4)cc3c2C(C)C)cn2ncnc12` (stereo not drawn) [Example 71], in that order: 4410 nM, 2.7 nM and 0.68 nM.
In the case of `Cc1c(-c2[nH]c3ccc(C4CC(NCC(=O)N(C)C)C4)cc3c2C(C)C)cn2ncnc2c1C` (stereo not drawn) [Example 566], the 50% inhibitory concentration (IC50) worked out at 4450 nM at human TLR9, 0.6 nM against human TLR8 and 1 nM against human TLR7.
For `Cc1cc(-c2[nH]c3ccc(C4CCCNC4)cc3c2C(C)C)ccn1` (stereo not drawn) [Example 184], in that order: 866 nM, 3.8 nM and 12 nM.
The corresponding values for `Cc1cc(-c2[nH]c3ccc(C4CCCN(Cc5c[nH]c(C)n5)C4)cc3c2C(C)C)cc(C)n1` (stereo not drawn) [Example 247] are 116 nM, 6.9 nM and 8 nM.
The corresponding values for `CCN(C)C1CCC(c2ccc3[nH]c(-c4cc(OC)c5ncnn5c4)c(C(C)C)c3c2)CC1` (single isomer, unassigned) [Example 65] are 1150 nM, 1.3 nM and 0.23 nM.
Consider `Cc1cc(-c2[nH]c3ccc(C4CCC(NC5COC5)CC4)cc3c2C(C)C)cn2ncnc12` (stereo not drawn) [Example 59], for which the values for the IC50 at human TLR9, against human TLR8 and against human TLR7 were 3140 nM, 0.88 nM and 0.14 nM, respectively.
The corresponding values for `CNCC(=O)N1CC(c2ccc3[nH]c(-c4cc(OC)c5ncnn5c4)c(C(C)C)c3c2)C1` [Example 268] are 396 nM, 5.9 nM and 0.72 nM.
As for `Cc1c(-c2[nH]c3ccc(C4CCC(N)CC4)cc3c2C(C)C)cn2cnnc2c1C` (stereo not drawn) [Example 516], the IC50 against human TLR9 stood at 707 nM; against human TLR8, 13 nM; against human TLR7, 3 nM.
For `Cc1cc(-c2[nH]c3ccc(C4CN(CC(=O)N(C)C)CCO4)cc3c2C(C)C)cc(C)n1` (stereo not drawn) [Example 322], in that order: 20300 nM, 86 nM and 69 nM.
For `Cc1c(-c2[nH]c3ccc(C4CN(C5CCOCC5)C4)cc3c2C(C)C)cn(C)c(=O)c1C` [Example 481], in that order: 32800 nM, 27 nM and 109 nM.
The corresponding values for `Cc1cc(-c2[nH]c3ccc(CCN4CCC(F)CC4)cc3c2C(C)C)cn(C)c1=O` [Example 407] are 13600 nM, 1.4 nM and 9 nM.
Turning to `COc1cc(-c2[nH]c3ccc(C4CCC(NCC(F)F)CC4)cc3c2C(C)C)cn2ncnc12` (single isomer, unassigned) [Example 67], the IC50 turned out to be 5760 nM against human TLR9, 1.3 nM against human TLR8 and 0.17 nM against human TLR7.
